The values that follow come from paper PMC11345766, “Computational Design of Pore-Forming Peptides with Potent Antimicrobial and Anticancer Activities” (Journal of Medicinal Chemistry, 2024).

Data set [1] is described as follows: Calcein dye leakage assay from LUVs. Format: biochemical. Particulars: P:L 1:100; pH 7.4. From the text: To verify the pore-forming mechanism of action of the designed AMPs, we performed a calcein leakage assay. […] These lipid vesicles were used as simple mimics of bacterial membranes.[58] At the lowest tested peptide-to-lipid (P:L) ratio of 1:100 (mol/mol), three mutants (LP18, LP26, and LP40) caused >90% leakage, which was higher than the leakage caused by LP1 (87%). […] At the same concentration, LP23 caused leakage equivalent to that caused by LP1. Other mutants had lower leakage activity. At a higher P:L ratio of 1:50, all the abovementioned mutants caused 100% leakage, equivalent to that caused by LP1.
Pore-forming activity was tested using a dye leakage assay measuring the leakage of self-quenching fluorescent dye calcein from POPC:POPG (1:1 mol/mol) LUVs. DiD was mixed with lipids (1:500 mol/mol), and lipid film was created by evaporating chloroform, followed by 4 h of desiccation. Dried lipid film was dissolved in calcein buffer (35 mM calcein, 25 mM NaH2PO4·H2O and Na2HPO4·7H2O (3:7 mol/mol), 20 mM NaCl, and 1 mM EDTA). After 10 freeze–thaw cycles, the sample was extruded 50 times through a 100 nm pore size polycarbonate membrane filter. Free calcein in solution was removed using a HiTrap Desalting column. The concentrations of LUVs and peptides were adjusted to 0.02 and 0.1 mM, respectively, in PBS (25 mM NaH2PO4·H2O and Na2HPO4·7H2O (3:7 mol/mol), 100 mM NaCl, and 1 mM EDTA). The investigated P/L ratio was from 1:100 to 1:10 (mol/mol). Fluorescence intensity was measured using a HORIBA Scientific Jobin Yvon FluoroLog-3 Modular Spectrofluorometer (USA). Excitation and emission wavelengths were set to 495 and 520 nm, respectively. Triton X-100 10% caused 100% leakage used for normalization.

In the next data set the test system is E. coli (TOP10). As to the kind of experiment: Broth microdilution antimicrobial susceptibility assay. Format: cell-based, Escherichia coli. Particulars: 24 h, MHB. Put shortly:
(§1)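 Bacteria were grown on MHA for 24 h, subcultured in MHB for 6 h at 37 °C and diluted to 10^6 CFU/mL. Compounds were serially diluted from 50 to 0.1 μM, inoculated and incubated for 24 h at 37 °C. MIC was the lowest concentration with no visible turbidity.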
(Dilution methods test growth across graded concentrations, often in twofold steps.)

For another data set, the system named is S. carnosus (CCM 4838T). As to the kind of experiment: microbe, parasite or virus in culture. Format: cell-based, Staphylococcus carnosus. The conditions noted are these: CCM 4838, 24 h; read-out: Antimicrobial activity (MIC) S. carnosus (CCM 4838T). Put shortly: as §1
The subject of data set [2] is murine macrophages RAW 264.7. The conditions noted are these: 24 h. As for the experimental part:
Cytotoxicity against human immortalized keratinocytes HaCaT, human alveolar basal epithelial A549 (derived from adenocarcinoma), and murine macrophages RAW 264.7 was tested using MTT [3-(4,5-dimethylthiazol-2-yl)-2,5-diphenyltetrazolium bromide] assay. Cells were cultured in Dulbecco’s modified Eagle’s medium (DMEM) containing 4 mM glutamine for HaCaT, or 2 mM glutamine for A549 and RAW 264.7 cells, supplemented with 10% heat-inactivated fetal bovine serum (FBS) and antibiotics (0.1 mg/mL penicillin and streptomycin). Nonessential amino acids (NEAA) and sodium pyruvate (1 mM) were added for macrophages. Cell lines were grown in 25 and 75 cm^2 flasks at 37 °C in a humidified atmosphere with 5% CO2. Cells were suspended in DMEM, containing glutamine, NEAA, and sodium pyruvate (as described above), supplemented with 2% FBS, plated in 96-well plates at 4 × 10^4 cells/well, and incubated at 37 °C in a 5% CO2 atmosphere. After overnight incubation, the medium was replaced with fresh DMEM supplemented with peptides at different concentrations: 2, 4, 8, 16, 32, 64, and 128 μM. Negative controls were cells without peptides. After 24 h of peptide treatment at 37 °C in a 5% CO2 atmosphere, medium was replaced with Hank’s buffer (136 mM NaCl, 0.34 mM Na2HPO4, 0.44 mM KH2PO4, 5.4 mM KCl, 4.1 mM NaHCO3, supplemented with 5.5 mM D-glucose) containing 0.5 mg/mL MTT. Mitochondrial dehydrogenases converted soluble yellow dye MTT to insoluble purple formazan. After 4 h of incubation, acidified isopropanol was added to dissolve formazan crystals and measured for OD570 using Tecan microplate reader Infinite M200 (Salzburg, Austria).

Data set [3] relates to A. baumannii (ATCC 19606). Description: Neutropenic murine deep thigh infection model. Format: in vivo, mouse. The conditions noted are these: single intraperitoneal dose at 10 times the MIC; four days after treatment. From the text: Mice were euthanized 4 days postinfection (day 8).
Each experimental group comprised three mice.

Data set [4] relates to cytoplasmic membranes of ESKAPEE pathogens. Description: Cytoplasmic membrane depolarization assay, DiSC3-(5). Format: cell-based. Particulars: both Gram-negative and Gram-positive bacteria; peptides at their MICs. Here is the method: First, we investigated the ability of the peptides to depolarize the cytoplasmic membranes of ESKAPEE pathogens. […] Bacteria were incubated with 3,3′-dipropylthiadicarbocyanine iodide [DiSC3-(5)] dye, and the dye fluorescence was measured after peptide treatment. DiSC3-(5) is sensitive to transmembrane potential changes. It accumulates in the cytoplasmic membrane with quenched fluorescence, and when the membrane potential becomes unbalanced, the dye molecules translocate to the outside environment, resulting in increased fluorescence.[56] The three potent AMPs (LP1, LP18, and LP28) and the H-variant (LP40) depolarized the cytoplasmic membrane of both Gram-negative and Gram-positive bacteria at their MICs.
The cytoplasmic membrane depolarization activity of the peptides was determined by measuring the fluorescence of membrane-potential-sensitive dye DiSC3-(5). A. baumannii ATCC 19606, E. coli ATCC 11775, K. pneumoniae ATCC 13883, P. aeruginosa PAO1, S. aureus ATCC 12600, and E. faecium ATCC 700221 were grown to mid log phase (OD600 = 0.5) at 37 °C and then centrifuged (10,000 rpm at 4 °C for 10 min). Cells were washed twice with a buffer containing 20 mM glucose and 5 mM HEPES (pH 7.2) and diluted 1:10 (OD600 = 0.05) in a buffer with 0.1 M KCl, […], and 5 mM HEPES (pH 7.2). Fluorescence was recorded at the excitation and emission wavelengths of 622 and 670 nm, respectively. Bacterial solution (100 μL) was incubated for 15 min with 20 nM of DiSC3-(5) until fluorescence reached a plateau. Changes in transmembrane potential were monitored by observing the difference in fluorescence emission intensity after adding peptides (100 μL at their MICs) for 45 min. Assay was performed in triplicate.

A further data set concerns E. faecium (ATCC 700221). The conditions noted are these: resistant to vancomycin.
The subject of data set [5] is A. baumannii (ATCC 19606). The conditions noted are these: clinically relevant strain.
Text: (§2) The effect of net charge was further investigated against six reference strains of ESKAPEE pathogens (Figure 3b).
In another data set the test system is E. coli AIC221. Particulars: Figure 3c.
For a further data set, the system named is A. baumannii (Z13). Particulars: Z13, 18 h.
For data set [6] the following is noted: single intraperitoneal dose at 10 times the MIC.
Experimental: Neutropenic mice were infected intramuscularly (in the right thigh) with 10^6 cells per mL of Gram-negative A. baumannii (ATCC 19606).
(a) Schematic of the deep thigh infection model in which bacteria are injected intramuscularly at day 4 and peptides are administered intraperitoneally also at day 4 to assess their anti-infective activity. Mice were euthanized 4 days postinfection (day 8). Each group consisted of six mice (n = 6), and the bacterial loads used to infect the mice derived from three different inocula. […] Polymyxin B (0.006 mg/kg) and levofloxacin (0.014 mg/kg) were used as the reference antibiotics. Statistical significance was done using one-way ANOVA followed by Dunnett’s test. Violin plots represent the median, upper quartile, and lower quartile. (c) Mouse weight was monitored to exclude possible toxic effects of the peptides.
Six-week-old female CD-1 mice (obtained from Charles River; stock number 18679700-022) underwent neutropenia induction via two intraperitoneal doses of cyclophosphamide (150 mg kg^–^1) administered with a 72 h interval. One day later, the mice received an intramuscular injection containing A. baumannii ATCC 19606 (10^6 CFU mL^–1) in the right thigh. Bacteria were cultured in LB broth, washed twice with PBS (pH 7.4), and resuspended to the desired concentration. […] Polymyxin B (0.006 mg/kg) and levofloxacin (0.014 mg/kg) were used as the reference antibiotics. Prior to each injection, mice were anesthetized with isoflurane and their respiratory rate and pedal reflexes were monitored. Subsequently, we observed the infection establishment and euthanized the mice. The infected area was excised 4 days postinfection (i.e., 8 days after the beginning of the experiment), homogenized using a bead beater for 20 min (25 Hz), and 10-fold serially diluted for CFU quantification on MacConkey agar plates. Each experimental group comprised three mice. All experiments were conducted blindly, and no animals were excluded from the analysis. Statistical significance was assessed using one-way ANOVA followed by Dunnett’s test on log10-transformed data to mitigate outlier effects; p values are reported for each group, with all groups compared to the untreated control group.

Text for E. coli AIC221: as §2
Text for E. faecium (ATCC 700221): as §2

The IC50 is the concentration at which inhibition is half-maximal. A high value points to a need for much substance. For the substance “H-KKKKKLKKILKKLFQFINQLDNQLQDIKKKKK-OH [LP28]”, the “Calcein leakage (%) from LUVs at P:L 1:100 (mol/mol)” value in data set [1] was 74.0 ± 6.7%. For the same substance, the MIC with E. coli (TOP10) came to 0.4 µM; with S. carnosus (CCM 4838T) it was 0.4 µM; in the data set with E. faecium (ATCC 700221), 0.8 µM; in [5], 0.8 µM; against E. coli AIC221, 0.8 µM; with A. baumannii (Z13), 1 µM. This substance also had an IC50 in data set [2] of 31 µM. In [3], the “Reduction of bacterial load” value is given as “did not significantly reduce the bacterial load”. For the same substance, the “Depolarization of the cytoplasmic membrane” value in [4] was “depolarized”. In data set [6], the “Change in mouse weight” value is “no significant change in mouse weight”.
